Read-outs that look alike come from different tables or passages of the source.
How the values were obtained:
EGFR Exon19Del = biological target: T1, EGFR Exon19Del (Homo sapiens, UniProt P00533, DEL746-750); experiment: Inhibition of EGFR Exon19Del biochemical enzymatic activity (HTRF); details: read-out: IC50 @Del19
T1 construct: purchased Carna Bio
Procedure, shortened: (§1)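 1 mM ATP, 1 μM biotin-TK peptide, 5 mM MgCl2, 1 mM MnCl2, 0.01% CHAPS, 1 mM DTT, 0.5% DMSO; 1 h RT; EDTA stop; HTRF 665/615 nm; IC50 via 4PL.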

EGFR (C797S L858R) = biological target: T2, EGFR (C797S L858R) (Homo sapiens, UniProt P00533, C797S/L858R); experiment: Inhibition of EGFR (C797S L858R) biochemical enzymatic activity (HTRF); details: 1 mM ATP
T2 construct: purchased signalchem
Procedure, shortened: as §1

EGFR[T790M/C797S/L858R] = biological target: T3, EGFR[T790M/C797S/L858R] (Homo sapiens, UniProt P00533, C797S/L858R/T790M); experiment: Inhibition of EGFR[T790M/C797S/L858R] biochemical enzymatic activity (HTRF); details: 1 mM ATP
T3 construct: purchased Carna Bio
Procedure, shortened: as §1

EGFR L858R/T790M = biological target: T4, EGFR L858R/T790M (Homo sapiens, UniProt P00533, L858R/T790M); experiment: Inhibition of EGFR L858R/T790M biochemical enzymatic activity (HTRF); details: 1 mM ATP
T4 construct: purchased Carna Bio
Procedure, shortened: as §1

EGFR Exon19Del/T790M = biological target: T5, EGFR Exon19Del/T790M (Homo sapiens, UniProt P00533, DEL746-750/T790M); experiment: Inhibition of EGFR Exon19Del/T790M biochemical enzymatic activity (HTRF); details: 1 mM ATP
T5 construct: purchased Carna Bio
Procedure, shortened: as §1

EGFR (d746-750 C797S) = biological target: T6, EGFR (d746-750 C797S) (Homo sapiens, UniProt P00533, C797S/DEL746-750); experiment: Inhibition of EGFR (d746-750 C797S) biochemical enzymatic activity (HTRF); details: 1 mM ATP
T6 construct: purchased signalchem
Procedure, shortened: as §1

EGFR wild type = biological target: T7, EGFR wild type (Homo sapiens, UniProt P00533); experiment: Inhibition of EGFR wild type biochemical enzymatic activity (HTRF); details: 1 mM ATP
T7 construct: purchased Carna Bio
Procedure, shortened: as §1

EGFR L858R = biological target: T8, EGFR L858R (Homo sapiens, UniProt P00533, L858R); experiment: Inhibition of EGFR L858R biochemical enzymatic activity (HTRF); details: 1 mM ATP
T8 construct: purchased Carna Bio
Procedure, shortened: as §1

[1] = test system: Ba/F3 cells expressing EGFR mutations; experiment: Cell proliferation assay, Ba/F3 cells expressing EGFR mutations (CellTiter-Glo, 72 hours); assay type: cell-based
Procedure, shortened: (§2)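 Cells are exposed to graded compound concentrations after overnight plating, using 500 PC-9 or 5000 Ba/F3 per well. Baseline-subtracted viability is compared with vehicle to give percent proliferation, then GI50.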

PC-9 = experiment: Cell proliferation assay, PC-9 cells (CellTiter-Glo, 72 hours); assay type: cell-based; details: PC9 cells
Procedure, shortened: as §2

[2] = biological target: T9, EGFR[T790M/C797S/d746-750] (Homo sapiens, UniProt P00533, C797S/DEL746-750/T790M); experiment: Inhibition of EGFR[T790M/C797S/d746-750] biochemical enzymatic activity (HTRF)
T9 construct: purchased Carna Bio
Procedure, shortened: as §1

[3] = EGFR Exon19Del, 1 mM ATP, 1 h at room temperature
[4] = EGFR (C797S L858R), 1 h at room temperature, read-out: IC50 @L858-C797S
[5] = EGFR[T790M/C797S/L858R], 1 h at room temperature, read-out: IC50 @T790M- C797S - L858R
[6] = EGFR L858R/T790M, 1 h at room temperature, read-out: IC50 @L858R-T790M
[7] = EGFR Exon19Del/T790M, 1 h at room temperature, read-out: IC50 @Del19-T790M
[8] = EGFR (d746-750 C797S), 1 h at room temperature, read-out: IC50 @Del19-C797S
[9] = EGFR wild type, 1 h at room temperature, read-out: IC50 @WT
[10] = 1 h at room temperature, read-out: IC50 @L858R
[11] = BaF3 cells, EGFR DEL19 - C797S, read-out: GI50 DEL19 - C797S/BaF3
[12] = BaF3 cells, EGFR DEL19 - T790-C797S, read-out: GI50 DEL19 - T790-C797S/BaF3
[13] = BaF3 cells, EGFR L858R - C797S, read-out: GI50 L858R - C797S/BaF3
[14] = BaF3 cells, EGFR L858R - T790-C797S, read-out: GI50 L858R - T790-C797S/BaF3
[15] = BaF3 cells, EGFR L858R - T790M, read-out: GI50 L858R - T790M/BaF3
[16] = BaF3 cells, EGFR L858R, read-out: GI50 L858R/BaF3
[17] = EGFR DEL19 - T790M, read-out: GI50 DEL19 - T790M
[18] = EGFR[T790M/C797S/d746-750], 1 mM ATP, 1 h at room temperature, read-out: IC50 @T790M - C797S - Del19

T7 sequence (P00533 25-1210): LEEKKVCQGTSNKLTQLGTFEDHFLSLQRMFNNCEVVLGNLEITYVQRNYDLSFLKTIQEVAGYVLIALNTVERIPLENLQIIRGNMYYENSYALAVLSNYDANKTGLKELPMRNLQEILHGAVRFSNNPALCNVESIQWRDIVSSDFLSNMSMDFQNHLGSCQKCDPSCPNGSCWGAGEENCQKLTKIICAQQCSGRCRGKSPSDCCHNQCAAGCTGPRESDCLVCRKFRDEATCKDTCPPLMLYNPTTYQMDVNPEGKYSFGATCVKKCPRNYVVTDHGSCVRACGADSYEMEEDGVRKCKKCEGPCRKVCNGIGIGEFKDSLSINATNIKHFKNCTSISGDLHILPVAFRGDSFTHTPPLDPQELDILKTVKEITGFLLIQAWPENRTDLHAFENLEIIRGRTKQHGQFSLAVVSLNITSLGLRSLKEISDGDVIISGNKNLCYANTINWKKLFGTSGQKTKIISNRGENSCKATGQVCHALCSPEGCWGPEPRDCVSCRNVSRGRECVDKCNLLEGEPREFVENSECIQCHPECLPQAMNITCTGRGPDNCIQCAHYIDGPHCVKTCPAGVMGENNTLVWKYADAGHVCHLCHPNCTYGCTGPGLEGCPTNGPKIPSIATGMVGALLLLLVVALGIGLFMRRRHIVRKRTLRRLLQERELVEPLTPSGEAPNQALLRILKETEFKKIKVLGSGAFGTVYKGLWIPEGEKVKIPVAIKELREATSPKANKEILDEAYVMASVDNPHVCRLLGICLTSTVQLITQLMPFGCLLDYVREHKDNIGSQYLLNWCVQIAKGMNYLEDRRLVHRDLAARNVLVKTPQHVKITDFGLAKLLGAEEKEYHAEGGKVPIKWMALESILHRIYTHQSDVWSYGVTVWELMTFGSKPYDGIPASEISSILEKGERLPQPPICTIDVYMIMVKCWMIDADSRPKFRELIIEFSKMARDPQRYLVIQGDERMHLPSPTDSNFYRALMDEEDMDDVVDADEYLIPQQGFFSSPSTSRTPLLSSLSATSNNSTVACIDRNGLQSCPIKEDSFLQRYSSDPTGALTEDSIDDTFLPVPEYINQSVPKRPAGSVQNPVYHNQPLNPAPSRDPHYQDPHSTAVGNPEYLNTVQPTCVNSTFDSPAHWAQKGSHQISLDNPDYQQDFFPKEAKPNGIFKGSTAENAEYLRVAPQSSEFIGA
T6 sequence (P00533 with tags, fused parts or gaps DEL746-750/C797S limits assumed): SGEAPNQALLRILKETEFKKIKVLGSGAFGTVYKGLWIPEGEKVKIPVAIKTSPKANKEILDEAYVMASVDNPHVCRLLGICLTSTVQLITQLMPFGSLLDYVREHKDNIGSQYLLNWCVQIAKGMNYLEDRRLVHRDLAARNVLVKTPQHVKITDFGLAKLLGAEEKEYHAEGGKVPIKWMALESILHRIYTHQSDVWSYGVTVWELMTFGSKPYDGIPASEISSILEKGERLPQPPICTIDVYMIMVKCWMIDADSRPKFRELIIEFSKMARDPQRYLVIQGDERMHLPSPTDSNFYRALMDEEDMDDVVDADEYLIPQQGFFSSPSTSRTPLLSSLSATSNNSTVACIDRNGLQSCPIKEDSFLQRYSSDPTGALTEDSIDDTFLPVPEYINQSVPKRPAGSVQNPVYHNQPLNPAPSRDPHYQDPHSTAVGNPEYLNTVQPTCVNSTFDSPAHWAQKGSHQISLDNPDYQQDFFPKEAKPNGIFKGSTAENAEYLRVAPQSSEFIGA
T3 sequence (P00533 25-1210 T790M/C797S/L858R): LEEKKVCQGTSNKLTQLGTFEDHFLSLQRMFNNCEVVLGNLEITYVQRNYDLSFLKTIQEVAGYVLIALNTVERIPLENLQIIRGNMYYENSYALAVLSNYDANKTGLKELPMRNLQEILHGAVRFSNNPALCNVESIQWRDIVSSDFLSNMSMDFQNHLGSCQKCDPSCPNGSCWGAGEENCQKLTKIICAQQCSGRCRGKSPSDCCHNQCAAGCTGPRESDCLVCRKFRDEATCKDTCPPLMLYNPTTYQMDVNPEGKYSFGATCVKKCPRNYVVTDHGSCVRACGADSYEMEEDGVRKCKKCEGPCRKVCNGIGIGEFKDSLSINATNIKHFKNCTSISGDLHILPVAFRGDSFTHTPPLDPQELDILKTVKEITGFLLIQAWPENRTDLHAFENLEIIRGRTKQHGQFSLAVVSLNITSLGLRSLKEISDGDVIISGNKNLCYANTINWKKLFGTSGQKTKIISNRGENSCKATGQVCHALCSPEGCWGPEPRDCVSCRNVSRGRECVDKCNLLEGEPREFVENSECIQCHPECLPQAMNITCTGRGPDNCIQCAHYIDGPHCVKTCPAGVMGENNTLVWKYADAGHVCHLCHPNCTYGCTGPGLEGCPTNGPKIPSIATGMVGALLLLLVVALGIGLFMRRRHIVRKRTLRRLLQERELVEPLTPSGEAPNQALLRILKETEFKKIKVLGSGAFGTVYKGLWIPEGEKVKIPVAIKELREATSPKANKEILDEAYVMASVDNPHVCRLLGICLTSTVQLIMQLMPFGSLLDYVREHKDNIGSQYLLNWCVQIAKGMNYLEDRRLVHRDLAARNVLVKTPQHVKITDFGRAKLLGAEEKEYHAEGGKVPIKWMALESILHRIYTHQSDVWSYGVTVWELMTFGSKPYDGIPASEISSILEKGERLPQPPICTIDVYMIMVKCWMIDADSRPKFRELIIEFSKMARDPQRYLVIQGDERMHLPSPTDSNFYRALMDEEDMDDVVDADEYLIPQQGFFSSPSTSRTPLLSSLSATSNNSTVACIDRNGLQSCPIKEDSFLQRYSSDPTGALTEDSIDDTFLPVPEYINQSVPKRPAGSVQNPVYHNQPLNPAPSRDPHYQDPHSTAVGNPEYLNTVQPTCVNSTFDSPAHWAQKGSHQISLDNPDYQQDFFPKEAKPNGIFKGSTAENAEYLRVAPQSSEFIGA
T4 sequence (P00533 25-1210 T790M/L858R): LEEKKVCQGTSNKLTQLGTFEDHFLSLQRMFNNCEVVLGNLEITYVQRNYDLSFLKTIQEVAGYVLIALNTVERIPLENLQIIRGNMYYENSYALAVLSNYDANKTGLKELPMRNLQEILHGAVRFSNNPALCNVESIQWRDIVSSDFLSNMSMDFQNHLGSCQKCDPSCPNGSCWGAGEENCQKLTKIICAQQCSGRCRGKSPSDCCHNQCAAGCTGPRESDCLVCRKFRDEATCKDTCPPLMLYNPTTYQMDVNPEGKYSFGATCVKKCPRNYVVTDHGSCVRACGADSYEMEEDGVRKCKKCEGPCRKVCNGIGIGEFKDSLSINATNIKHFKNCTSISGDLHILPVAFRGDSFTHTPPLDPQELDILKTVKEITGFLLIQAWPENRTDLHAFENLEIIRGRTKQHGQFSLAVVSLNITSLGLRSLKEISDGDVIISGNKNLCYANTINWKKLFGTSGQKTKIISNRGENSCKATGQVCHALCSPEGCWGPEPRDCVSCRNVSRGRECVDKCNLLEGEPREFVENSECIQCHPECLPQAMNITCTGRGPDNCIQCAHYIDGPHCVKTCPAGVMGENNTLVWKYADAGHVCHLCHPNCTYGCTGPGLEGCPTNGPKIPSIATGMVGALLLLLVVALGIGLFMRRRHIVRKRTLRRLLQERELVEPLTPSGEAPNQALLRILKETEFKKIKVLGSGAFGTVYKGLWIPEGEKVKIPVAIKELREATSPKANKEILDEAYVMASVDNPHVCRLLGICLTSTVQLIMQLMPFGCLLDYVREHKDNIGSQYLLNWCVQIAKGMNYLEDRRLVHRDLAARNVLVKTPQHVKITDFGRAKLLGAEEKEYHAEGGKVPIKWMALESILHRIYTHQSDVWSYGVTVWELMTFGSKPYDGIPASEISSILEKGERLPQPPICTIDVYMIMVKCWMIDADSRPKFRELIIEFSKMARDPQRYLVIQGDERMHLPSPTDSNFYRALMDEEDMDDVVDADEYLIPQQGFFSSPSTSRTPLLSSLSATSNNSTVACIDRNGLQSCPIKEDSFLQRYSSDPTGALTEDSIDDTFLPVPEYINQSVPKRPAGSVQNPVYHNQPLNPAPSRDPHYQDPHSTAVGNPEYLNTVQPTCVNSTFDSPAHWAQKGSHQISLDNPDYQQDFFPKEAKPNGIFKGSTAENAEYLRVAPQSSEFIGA
T5 sequence (P00533 with tags, fused parts or gaps DEL746-750/T790M limits assumed): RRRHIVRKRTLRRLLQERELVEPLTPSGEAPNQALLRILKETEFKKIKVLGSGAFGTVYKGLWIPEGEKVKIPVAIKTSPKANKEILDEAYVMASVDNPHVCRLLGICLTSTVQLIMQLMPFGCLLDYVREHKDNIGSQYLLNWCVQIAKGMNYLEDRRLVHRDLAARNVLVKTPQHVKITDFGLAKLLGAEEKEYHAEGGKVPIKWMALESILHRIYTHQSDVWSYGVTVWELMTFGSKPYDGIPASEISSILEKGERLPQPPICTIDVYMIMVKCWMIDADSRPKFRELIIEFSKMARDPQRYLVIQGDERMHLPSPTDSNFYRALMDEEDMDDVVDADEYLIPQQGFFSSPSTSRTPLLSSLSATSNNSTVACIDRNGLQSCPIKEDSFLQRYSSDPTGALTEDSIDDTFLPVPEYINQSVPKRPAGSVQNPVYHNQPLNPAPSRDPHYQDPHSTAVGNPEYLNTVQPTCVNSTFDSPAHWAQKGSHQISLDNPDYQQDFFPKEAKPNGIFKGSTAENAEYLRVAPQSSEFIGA

Row | Structure (SMILES) | IC50 (EGFR Exon19Del; [3]) [nM] | IC50 (EGFR (C797S L858R); [4]) [nM] | IC50 (EGFR[T790M/C797S/L858R]; [5]) [nM] | IC50 (EGFR L858R/T790M; [6]) [nM] | IC50 (EGFR Exon19Del/T790M; [7]) [nM] | IC50 (EGFR (d746-750 C797S); [8]) [nM] | IC50 (EGFR wild type; [9]) [nM] | IC50 (EGFR L858R; [10]) [nM] | GI50 [1, 11] [nM] | GI50 [1, 12] [nM] | GI50 [1, 13] [nM] | GI50 [1, 14] [nM] | GI50 [1, 15] [nM] | GI50 [1, 16] [nM] | GI50 [1, 17] [nM] | GI50 (PC-9; read-out: GI50 PC9) [nM] | IC50 [2, 18] [nM] | further results
1 | C[C@@H]1CCCOc2c(cnn2CC(F)(F)F)-c2cc(cn(C)c2=O)C(=O)Nc2nc3ccc(N4CCN(C)CC4)cc3n2C1 [Example A20, (11R)-11,26-Dimethyl-16-(4-methylpiperazin-1-yl)-5-(2,2,2-trifluoroethyl)-7-oxa-4,5,13,20,22,26-hexaazapentacyclo[22.3.1.0^{2,6}.0^{13,21}.0^{14,19}]octacosa-1(28),2(6),3,14,16,18,20,24-octaene-23,27-dione] | – | – | – | – | – | – | – | – | – | – | – | – | – | – | – | – | – | IC50 (EGFR Exon19Del; EGFR Del19, 1 mM ATP, 1 h, room temperature): 86 nM; IC50 (EGFR (C797S L858R); EGFR L858-C797S, 1 h, room temperature, read-out: IC50 (nM) @L858-C797S): 132 nM; IC50 (EGFR[T790M/C797S/L858R]; EGFR T790M-C797S-L858R, 1 h, room temperature, read-out: IC50 (nM) @T790M- C797S - L858R): 76 nM; IC50 (EGFR L858R/T790M; EGFR L858R-T790M, 1 h, room temperature, read-out: IC50 (nM) @L858R-T790M): 82 nM; IC50 (EGFR Exon19Del/T790M; EGFR Del19-T790M, 1 h, room temperature, read-out: IC50 (nM) @Del19-T790M): 41 nM; IC50 (EGFR (d746-750 C797S); EGFR Del19-C797S, 1 h, room temperature, read-out: IC50 (nM) @Del19-C797S): 42 nM; IC50 (EGFR wild type; EGFR WT, 1 h, room temperature, read-out: IC50 (nM) @WT): > 5000 nM; IC50 (EGFR L858R; 1 h, room temperature, read-out: IC50 (nM) @L858R): 301 nM; GI50 ([1]; Mus musculus, BaF3, 72 h, BaF3 cells, EGFR DEL19-C797S, CellTiter-Glo, read-out: DEL19-C797S/BaF3 GI50): 17.1 nM; GI50 ([1]; Mus musculus, BaF3, 72 h, BaF3 cells, EGFR DEL19-T790-C797S, CellTiter-Glo, read-out: DEL19-T790-C797S/BaF3 GI50): 204 nM; GI50 ([1]; Mus musculus, BaF3, 72 h, BaF3 cells, EGFR L858R, CellTiter-Glo, read-out: L858R/BaF3 GI50): 89 nM; GI50 ([1]; Mus musculus, BaF3, 72 h, BaF3 cells, EGFR L858R-C797S, CellTiter-Glo, read-out: L858R-C797S/BaF3 GI50): 87 nM; GI50 ([1]; Mus musculus, BaF3, 72 h, BaF3 cells, EGFR L858R-T790-C797S, CellTiter-Glo, read-out: L858R-T790-C797S/BaF3 GI50): 51 nM; GI50 ([1]; Mus musculus, BaF3, 72 h, BaF3 cells, EGFR L858R-T790M, CellTiter-Glo, read-out: L858R-T790M/BaF3 GI50): 39 nM; GI50 ([1]; Mus musculus, BaF3, 72 h, EGFR DEL19-T790M, CellTiter-Glo, read-out: DEL19-T790M GI50): 226 nM; GI50 (PC-9; Homo sapiens, PC-9, 72 h, CellTiter-Glo, read-out: PC9 GI50): 145 nM; IC50 ([2]; EGFR T790M-C797S-Del19, 1 mM ATP, 1 h, room temperature, read-out: IC50 (nM) @T790M - C797S - Del19): 40 nM
2 | Cc1cc2cc(n1)-c1cnn(C)c1OCCN1CC3CCC(C3)(C1)n1c(nc3ccc(N4CC5CN(C)CC5C4)cc31)NC2=O (single isomer, unassigned) [Example B43A] | > 5000 | > 5000 | > 5000 | > 5000 | 1160 | > 5000 | > 5000 | > 5000 | 193 | 200 | 442 | 68 | 305 | 998 | 271 | 1320 | 200 | –
3 | Cc1cc2cc(n1)-c1cnn(C)c1OCCN1CC3CCC(C3)(C1)n1c(nc3ccc(N(C)CCN(C)C)cc31)NC2=O (single isomer, unassigned) [Example B47A] | 4170 | > 5000 | > 5000 | > 5000 | 4260 | 3460 | > 5000 | > 5000 | 371 | 500 | 721 | 97 | 380 | 2990 | 417 | 2260 | 1820 | –

Reference: patent publication US20260365670A1, “EGFR INHIBITORS AND USES THEREOF” (DIZAL (JIANGSU) PHARMACEUTICAL CO., LTD., priority 2022, published 2026)
